Where a SMILES comes first, the peptide text is derived from it.
Key:
3T3-L1 murine adipocytes [1] = assay: 3T3-L1 fat accumulation (triglyceride) assay; format: cell-based; settings: differentiated 3T3-L1 adipocytes, 7 days, read-out: Anti-obesity activity (fat accumulation) EC50
Experimental: (§1) MV-A, MV-B, MV-C and MV-D are evaluated for their anti-obesity effects in 3T3-L1 murine adipocytes. 3T3-L1 cells are cultured in the presence of insulin to induce adipocyte differentiation.
(§2) Pure compounds are evaluated against 3T3-L1 cell line for their potential anti-obesity activity. […] After the cells reach 100% confluence, the culture medium is changed to a differentiation DMEM medium containing 10% FCS, […], 0.5 mM 3-isobutyl-1-methylxanthine (IBMX), 90 U/mL penicillin, […] and 10 μg/mL insulin for induction of the adipocyte form of the 3T3-L1 cells. After 2 days, the differentiation medium is changed back to the normal DMEM medium and refreshed with the normal medium every 2 days. After incubation of additional 7 days, the cells are seeded in two sets of 96-well plates (about 10,000 cells per well). The test compounds in different concentrations are then added to the wells with 0.5% aqueous DMSO as control group. After incubation of 7 days, the differentiated 3T3-L1 adipocytes are treated with 2% Triton-X 100 ([…]) for 30 min at room temperature followed by sonication for 1 min. Fat accumulation is determined by measuring the liberated triglyceride using a Wato Triglyceride E-test Kit with the absorbance at 630/690 nm. The fat-accumulation rate is calculated as a percentage of the DMSO control. […] The cell viability of the differentiated 3T3-L1 adipocytes in another 96-well plate is treated with a Wako Cell Counting Kit-8 Test and measured with the absorbance at 450 nm. The cell viability is calculated as a percentage of the control.

3T3-L1 murine adipocytes [2] = assay: 3T3-L1 adipocyte cell viability; format: cell-based; settings: differentiated 3T3-L1 adipocytes
Experimental: as §1, §2

[3] = test system: panel of cancer cell lines comprising KB, HCT116, LNCaP, A549, MCF7, HL60, Hela and A375; settings: read-out: Cell killing activity, IC50 values range over the panel; range over panel of human cancer cell lines
[4] = test system: oral epidermoid (KB) carcinoma cell line; assay: Cytotoxicity assay (sulforhodamine B), KB; format: cell-based, human; settings: KB cells
Experimental: (§3) Pure compounds are evaluated against the human cancer cell lines comprising our cytotoxicity screening panel. Cytotoxicity assays involving oral epidermoid (KB), colon (HCT116), prostate (LNCaP), breast (MCF7), Hela (cervical), leukemia (HL-60) melanoma (A375) and lung (A549) carcinoma cell lines, are performed using sulforhodamine B according to established protocols (Zhang et al., Journal of Medicinal Chemistry 2006; 49: 693-708; and Jutiviboonsuk A et al., Phytochemistry 2005; 66: 2745-2751.). KB and A375 cells are maintained in DMEM (Dulbecco's modified Eagle medium) medium. LNCaP and HL60 cells are maintained in RPMI1640 medium with hormone-free 10% heat-activated FBS (fetal bovine serum) supplemented with 0.1 nM testosterone. MCF7 and Hela cells are maintained and assayed in MEME (Minimum Essential Medium Eagle) medium containing 10 mg/L of insulin. HCT116 cells are maintained in McCoy's 5A medium supplemented with 10% fetal bovine serum. A549 cells are maintained in RPMI-1640 medium supplemented with 10% FCS. Serial dilutions of the compounds are prepared using 10% aqueous DMSO as solvent. The 190 μL cell suspension (3×10^4 cells in 1 ml media) is incubated with 10 μL sample solutions, in triplicate, in 96-well tissue culture plate at 37° C. in a humidified atmosphere of 5% CO2 in air for 72 hours. 10 μL 10% aqueous DMSO is used as control group. Then the cells are fixed to plastic substratum by the addition of 100 μL cold 20% aqueous trichloroacetic acid and washing with water after incubation at 4° C. for 30 min. After staining cells with 100 μL of 0.4% sulforhodamine B in 1% aqueous AcOH for 30 min, unbound dye is removed by rinsing with 1% aqueous AcOH. The bound dye is solubilized with 200 μL 10 mM unbuffered Tris base, pH 10, and the optical density is measured at 515 nm using an ELISA plate reader. The average data are expressed as a percentage, relative to the control. The IC50 values, the dose that inhibit cell growth by 50%, are calculated using nonlinear regression analysis (percent survival versus concentration).

[5] = test system: prostate (LNCaP) carcinoma cell line; assay: cells; format: cell-based, human; settings: Homo sapiens, 72 hours, read-out: Cytotoxic activity IC50, LNCaP
Experimental: as §3

[6] = test system: lung (A549) carcinoma cell line; assay: cells; format: cell-based, human; settings: Homo sapiens
Experimental: as §3

[7] = test system: breast (MCF7) carcinoma cell line; assay: cells; format: cell-based, human; settings: Homo sapiens
Experimental: as §3

HCT116-tumor xenograft = assay: HCT116 xenograft mouse model; format: in vivo; settings: 0.1 mg/kg, after the first two treatments
Experimental: The treatment started on the 6th day when the HCT116-tumor reached approximately 100 mm^3 (L×W×W). […] All mice died for the maytansine group after the initial two treatments at the dose of 0.1 mg/kg, indicating the highly toxicity of maytansine.

CC(C)C[C@H]1NC(=O)[C@@H](C)N(C)C(=O)[C@H](C)N(C)C(=O)[C@H](C2[C@@H](C)[C@@H]2C)NC(=O)[C@H](CC(C)C)N(C)C(=O)[C@H](C)N(C)C(=O)[C@@H](CC(C)C)NC1=O (stereo partly drawn) [MV-C] (HELM PEPTIDE1{[meA].[meL].[C[C@@H]1C([C@H](N[*:1])C(=O)[*:2])[C@H]1C].[meA].[C[C@H](C(=O)[*:2])N(C)[*:1]].[dL].[dL]}$PEPTIDE1,PEPTIDE1,1:R1-7:R2$$$V2.0)
EC50 (3T3-L1 murine adipocytes [1]): 38.9 nM
IC50 (3T3-L1 murine adipocytes [2]): 689 nM
IC50 [3]: 12 to 60 nM

CC(C)C[C@H]1NC(=O)[C@@H](C)N(C)C(=O)[C@H](C)N(C)C(=O)[C@H](C2[C@@H](C)[C@@H]2C)NC(=O)[C@H](CC(C)CO)N(C)C(=O)[C@H](C)N(C)C(=O)[C@@H](C2[C@@H](C)[C@@H]2C)NC1=O (some centres unmarked) [MV-B]
EC50 (3T3-L1 murine adipocytes [1]): 2.6 nM
IC50 (3T3-L1 murine adipocytes [2]): 83.7 nM
IC50 [3]: 0.7 to 9.1 nM

COc1cc2cc(c1Cl)N(C)C(=O)C[C@H](OC(=O)[C@H](C)N(C)C(C)=O)[C@]1(C)O[C@H]1[C@H](C)[C@@H]1C[C@@](O)(NC(=O)O1)[C@H](OC)/C=C/C=C(\C)C2 [Maytansine, reference compound]
IC50 ([4]; Homo sapiens, 72 hours, read-out: Cytotoxic activity IC50, KB): 0.16 nM
Cytotoxic activity IC90, KB [4]: ~5 nM
IC50 [5]: 0.56 nM
IC50 ([6]; 72 hours, read-out: Cytotoxic activity IC50, A549): 3.18 nM
IC90 ([6]; read-out: Cytotoxic activity IC90, A549): > 40 nM
IC50 ([7]; 72 hours, read-out: Cytotoxic activity IC50, MCF7): 0.69 nM
IC90 ([7]; read-out: Cytotoxic activity IC90, MCF7): > 20 nM
Mortality of tumor-bearing mice (HCT116-tumor xenograft): All mice died
